Assay results: ChEMBL document CHEMBL3739415, “Synthesis of functionalized new conjugates of batracylin with tuftsin/retro-tuftsin derivatives and their biological evaluation” (Eur J Med Chem, 2015)
The source made the active and inactive calls. The rule behind the calls is not given here. Non-standard residues stand in square brackets, D forms with d. Residues, ends and D or L forms follow the SMILES beside them. *: point of attachment. Batracylin(8-NH) = O=C1c2ccccc2C2=Nc3ccc(N*)cc3CN12; Arg(NO2) = N=C(NCCC[C@H](N)C(=O)O)N[N+](=O)[O-]

Tests used:
[1] = system: A549; assay: Cytotoxicity against human A549 cells after 120 hrs by MTT assay; type: functional, cell-based; settings: A549, 120 h
[2] = Cytotoxicity against human HL60 cells after 120 hrs by MTT assay; type: functional, cell-based; settings: HL-60, 120 h
[3] = target: T1, DNA topoisomerase 1 (Homo sapiens) (UniProt P11387); assay: Inhibition of human topoisomerase-1-mediated relaxation of supercoiled plasmid pBR322 DNA at 1 to 100 uM after 30 mins by ethidium bromide staining
T1 sequence (whole entry): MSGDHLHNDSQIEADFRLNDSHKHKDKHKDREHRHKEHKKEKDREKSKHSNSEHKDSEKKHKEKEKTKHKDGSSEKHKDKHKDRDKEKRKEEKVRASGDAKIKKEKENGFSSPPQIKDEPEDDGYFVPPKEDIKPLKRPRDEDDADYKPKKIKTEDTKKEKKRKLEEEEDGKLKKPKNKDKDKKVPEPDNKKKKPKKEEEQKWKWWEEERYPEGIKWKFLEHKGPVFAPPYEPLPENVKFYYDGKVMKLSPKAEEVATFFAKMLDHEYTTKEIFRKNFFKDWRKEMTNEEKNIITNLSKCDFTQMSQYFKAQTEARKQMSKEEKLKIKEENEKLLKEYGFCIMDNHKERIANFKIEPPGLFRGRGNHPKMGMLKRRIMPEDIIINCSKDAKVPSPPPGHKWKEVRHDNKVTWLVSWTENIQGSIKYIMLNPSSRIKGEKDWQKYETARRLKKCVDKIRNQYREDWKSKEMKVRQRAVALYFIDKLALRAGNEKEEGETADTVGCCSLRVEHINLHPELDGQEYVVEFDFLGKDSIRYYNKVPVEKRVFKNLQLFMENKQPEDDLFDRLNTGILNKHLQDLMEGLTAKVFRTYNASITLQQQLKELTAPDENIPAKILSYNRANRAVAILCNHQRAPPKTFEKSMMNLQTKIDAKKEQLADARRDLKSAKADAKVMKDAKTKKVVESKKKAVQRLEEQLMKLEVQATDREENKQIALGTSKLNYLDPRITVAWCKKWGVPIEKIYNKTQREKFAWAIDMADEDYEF

[4] = target: DNA topoisomerase 2-alpha (Homo sapiens) (UniProt P11388); assay: Inhibition of human topoisomerase-2alpha-mediated relaxation of supercoiled plasmid pBR322 DNA after 30 mins by ethidium bromide staining
Sequence of DNA topoisomerase 2-alpha (Homo sapiens) (P11388 whole entry): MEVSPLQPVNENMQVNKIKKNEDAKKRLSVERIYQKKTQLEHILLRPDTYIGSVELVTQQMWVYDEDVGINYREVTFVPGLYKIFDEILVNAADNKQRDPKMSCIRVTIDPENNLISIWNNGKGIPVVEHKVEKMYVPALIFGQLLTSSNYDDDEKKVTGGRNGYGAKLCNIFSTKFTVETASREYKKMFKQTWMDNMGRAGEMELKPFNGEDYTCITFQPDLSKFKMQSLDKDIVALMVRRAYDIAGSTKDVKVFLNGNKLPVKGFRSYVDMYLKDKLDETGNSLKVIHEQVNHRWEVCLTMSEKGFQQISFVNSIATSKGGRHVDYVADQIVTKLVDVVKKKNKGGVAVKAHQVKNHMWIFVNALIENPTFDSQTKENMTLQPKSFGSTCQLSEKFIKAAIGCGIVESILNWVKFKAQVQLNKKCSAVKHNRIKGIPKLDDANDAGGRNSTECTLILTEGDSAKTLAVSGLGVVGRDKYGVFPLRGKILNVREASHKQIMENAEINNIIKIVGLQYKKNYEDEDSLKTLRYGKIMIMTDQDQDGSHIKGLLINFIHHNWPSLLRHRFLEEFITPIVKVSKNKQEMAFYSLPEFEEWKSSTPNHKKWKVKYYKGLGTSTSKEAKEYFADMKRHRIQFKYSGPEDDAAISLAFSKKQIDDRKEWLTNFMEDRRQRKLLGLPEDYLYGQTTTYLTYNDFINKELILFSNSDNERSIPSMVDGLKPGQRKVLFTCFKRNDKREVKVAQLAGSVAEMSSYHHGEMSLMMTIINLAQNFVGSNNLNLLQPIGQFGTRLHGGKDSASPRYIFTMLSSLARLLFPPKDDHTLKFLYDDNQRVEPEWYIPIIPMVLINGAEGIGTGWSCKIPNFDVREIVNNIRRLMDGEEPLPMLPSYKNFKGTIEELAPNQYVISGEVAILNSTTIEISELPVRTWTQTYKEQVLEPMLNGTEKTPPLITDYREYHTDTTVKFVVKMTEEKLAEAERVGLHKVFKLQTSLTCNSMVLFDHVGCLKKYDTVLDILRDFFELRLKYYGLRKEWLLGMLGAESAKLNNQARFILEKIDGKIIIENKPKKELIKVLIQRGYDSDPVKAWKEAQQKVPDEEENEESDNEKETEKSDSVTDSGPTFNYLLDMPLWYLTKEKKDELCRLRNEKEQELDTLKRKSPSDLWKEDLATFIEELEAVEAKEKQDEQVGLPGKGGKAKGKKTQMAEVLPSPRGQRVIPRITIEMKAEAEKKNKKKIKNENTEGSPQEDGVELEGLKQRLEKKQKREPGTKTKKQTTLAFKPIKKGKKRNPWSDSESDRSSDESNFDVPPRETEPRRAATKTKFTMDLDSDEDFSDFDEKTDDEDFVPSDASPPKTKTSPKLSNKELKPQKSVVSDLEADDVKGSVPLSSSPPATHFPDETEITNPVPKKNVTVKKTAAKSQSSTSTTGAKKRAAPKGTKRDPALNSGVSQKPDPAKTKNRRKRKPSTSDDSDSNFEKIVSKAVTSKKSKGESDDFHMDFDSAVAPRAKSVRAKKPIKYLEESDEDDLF

[5] = system: A549; assay: Induction of DNA damage in human A549 cells assessed as phosphorylation of H2AX histone at IC90 after 3 hrs by fluorescence microscopy; type: functional, cell-based
[6] = system: A549; assay: Cell cycle arrest in human A549 cells assessed as accumulation at G2/M phase at IC90 after 24 hrs using propidium iodide staining by flow cytometry analysis; type: functional, cell-based
[7] = system: A549; assay: Cell cycle arrest in human A549 cells assessed as accumulation at G2/M phase at IC90 after 120 hrs using propidium iodide staining by flow cytometry analysis; type: functional, cell-based
[8] = system: A549; assay: Induction of apoptosis in human A549 cells assessed as increase of debris fraction at IC90 up to 120 hrs using Hoechst-33342 staining by fluorescent microscope analysis relative to BAT; type: functional
[9] = system: A549; assay: Induction of apoptosis in human A549 cells assessed as change in nuclear and cellular morphology at IC90 up to 120 hrs using Hoechst-33342 staining by fluorescent microscope analysis; type: functional, cell-based
[10] = Cell cycle arrest in human HL60 cells assessed as accumulation at G2/M phase at IC90 after 24 to 120 hrs using propidium iodide staining by flow cytometry analysis; type: functional, cell-based; settings: HL-60
[11] = Cell cycle arrest in human HL60 cells assessed as abnormal mitotic figures at IC90 after 24 to 120 hrs using propidium iodide staining by flow cytometry analysis; type: functional, cell-based; settings: HL-60
[12] = system: HL-60; assay: Induction of apoptosis in human HL60 cells assessed as increase of debris fraction at IC90 up to 120 hrs using Hoechst-33342 staining by fluorescent microscope analysis relative to BAT; type: functional, cell-based
[13] = system: HL-60; assay: Induction of apoptosis in human HL60 cells assessed as micronucleated cells at IC90 up to 120 hrs using Hoechst-33342 staining by fluorescent microscope analysis relative to BAT; type: functional, cell-based
[14] = system: HL-60; assay: Induction of apoptosis in human HL60 cells assessed as fraction of polyploid cells at IC90 up to 120 hrs using Hoechst-33342 staining by fluorescent microscope analysis relative to BAT; type: functional, cell-based

| SMILES | IC50 [1] | IC50 [2] | inhibition [3] | inhibition [4] | also measured |
| --- | --- | --- | --- | --- | --- |
| C[C@H](N)C(=O)NCCCC[C@H](NC(=O)[C@@H](N)[C@@H](C)O)C(=O)N1CCC[C@H]1C(=O)N[C@@H](CCCNC(=N)N[N+](=O)[O-])C(=O)Nc1ccc2c(c1)CN1C(=O)c3ccccc3C1=N2 (H-TK(Ala)P[Arg(NO2)]-{Batracylin(8-NH)}) | 5.9 µM | 19.6 µM | – | – | – |
| C[C@@H](O)[C@H](N)C(=O)N[C@@H](CCCCNC(=O)CN)C(=O)N1CCC[C@H]1C(=O)N[C@@H](CCCNC(=N)N[N+](=O)[O-])C(=O)Nc1ccc2c(c1)CN1C(=O)c3ccccc3C1=N2 (H-TK(Gly)P[Arg(NO2)]-{Batracylin(8-NH)}) | > 100 µM | > 100 µM | – | – | – |
| CC[C@H](C)[C@H](N)C(=O)NCCCC[C@H](NC(=O)[C@@H](N)[C@@H](C)O)C(=O)N1CCC[C@H]1C(=O)N[C@@H](CCCNC(=N)N[N+](=O)[O-])C(=O)Nc1ccc2c(c1)CN1C(=O)c3ccccc3C1=N2 (H-TK(Ile)P[Arg(NO2)]-{Batracylin(8-NH)}) | 17.4 µM | 15.4 µM | inactive | Dose-dependent effect | – |
| CC(C)C[C@H](N)C(=O)NCCCC[C@H](NC(=O)[C@@H](N)[C@@H](C)O)C(=O)N1CCC[C@H]1C(=O)N[C@@H](CCCNC(=N)N[N+](=O)[O-])C(=O)Nc1ccc2c(c1)CN1C(=O)c3ccccc3C1=N2 (H-TK(Leu)P[Arg(NO2)]-{Batracylin(8-NH)}) | > 100 µM | 83.7 µM | inactive | Dose-dependent effect | – |
| CC(C)[C@H](N)C(=O)NCCCC[C@H](NC(=O)[C@@H](N)[C@@H](C)O)C(=O)N1CCC[C@H]1C(=O)N[C@@H](CCCNC(=N)N[N+](=O)[O-])C(=O)Nc1ccc2c(c1)CN1C(=O)c3ccccc3C1=N2 (H-TK(Val)P[Arg(NO2)]-{Batracylin(8-NH)}) | > 100 µM | > 100 µM | – | – | – |
| C[C@@H](O)[C@H](N)C(=O)N[C@@H](CCCCN)C(=O)N1CCC[C@H]1C(=O)N[C@@H](CCCNC(=N)N[N+](=O)[O-])C(=O)Nc1ccc2c(c1)CN1C(=O)c3ccccc3C1=N2 (H-TKP[Arg(NO2)]-{Batracylin(8-NH)}) | 52.8 µM | 77.3 µM | – | – | Activity [5]: Active; Activity [6]: Active; Activity [7]: Active; fold change (FC) [8]: 3.5; Activity [9]: inactive; Activity [10]: inactive; Activity [11]: Active; Activity [12]: Active; Activity [13]: Active; Activity [14]: Active |
